Experimental data taken from BigSolDB 2.1.

## CCc1cccc2c3c([nH]c12)C(CC)(CC(=O)O)OCC3 (stereo not drawn)
In acetone, 278.15 K
  solubility (mole fraction): 0.0935
In acetone, 283.15 K
  solubility (mole fraction): 0.101
In acetone, 288.15 K
  solubility (mole fraction): 0.109
In acetone, 293.15 K
  solubility (mole fraction): 0.117
In acetone, 298.15 K
  solubility (mole fraction): 0.127
In acetone, 303.15 K
  solubility (mole fraction): 0.136
In acetone, 308.15 K
  solubility (mole fraction): 0.147
In acetone, 313.15 K
  solubility (mole fraction): 0.157
In acetone, 318.15 K
  solubility (mole fraction): 0.168
In acetone, 323.15 K
  solubility (mole fraction): 0.178
In dichloromethane, 278.15 K
  solubility (mole fraction): 0.00979
In dichloromethane, 283.15 K
  solubility (mole fraction): 0.0124
In dichloromethane, 288.15 K
  solubility (mole fraction): 0.0155
In dichloromethane, 293.15 K
  solubility (mole fraction): 0.019
In dichloromethane, 298.15 K
  solubility (mole fraction): 0.0229
In dichloromethane, 303.15 K
  solubility (mole fraction): 0.0271
In isobutanol, 278.15 K
  solubility (mole fraction): 0.0224
In isobutanol, 283.15 K
  solubility (mole fraction): 0.0265
In isobutanol, 288.15 K
  solubility (mole fraction): 0.0316
In isobutanol, 293.15 K
  solubility (mole fraction): 0.0382
In isobutanol, 298.15 K
  solubility (mole fraction): 0.0476
In isobutanol, 303.15 K
  solubility (mole fraction): 0.0594
In isobutanol, 308.15 K
  solubility (mole fraction): 0.0707
In isobutanol, 313.15 K
  solubility (mole fraction): 0.086
In isobutanol, 318.15 K
  solubility (mole fraction): 0.104
In isobutanol, 323.15 K
  solubility (mole fraction): 0.123
In isobutyl acetate, 278.15 K
  solubility (mole fraction): 0.0428
In isobutyl acetate, 283.15 K
  solubility (mole fraction): 0.0475
In isobutyl acetate, 288.15 K
  solubility (mole fraction): 0.0529
In isobutyl acetate, 293.15 K
  solubility (mole fraction): 0.0584
In isobutyl acetate, 298.15 K
  solubility (mole fraction): 0.0649
In isobutyl acetate, 303.15 K
  solubility (mole fraction): 0.07
In isobutyl acetate, 308.15 K
  solubility (mole fraction): 0.0774
In isobutyl acetate, 313.15 K
  solubility (mole fraction): 0.0861
In isobutyl acetate, 318.15 K
  solubility (mole fraction): 0.0959
In isobutyl acetate, 323.15 K
  solubility (mole fraction): 0.108
In isopentyl acetate, 278.15 K
  solubility (mole fraction): 0.0413
In isopentyl acetate, 283.15 K
  solubility (mole fraction): 0.0457
In isopentyl acetate, 288.15 K
  solubility (mole fraction): 0.0509
In isopentyl acetate, 293.15 K
  solubility (mole fraction): 0.0563
In isopentyl acetate, 298.15 K
  solubility (mole fraction): 0.0629
In isopentyl acetate, 303.15 K
  solubility (mole fraction): 0.068
In isopentyl acetate, 308.15 K
  solubility (mole fraction): 0.0758
In isopentyl acetate, 313.15 K
  solubility (mole fraction): 0.084
In isopentyl acetate, 318.15 K
  solubility (mole fraction): 0.0944
In isopentyl acetate, 323.15 K
  solubility (mole fraction): 0.105
In isopropanol, 278.15 K
  solubility (mole fraction): 0.0267
In isopropanol, 283.15 K
  solubility (mole fraction): 0.0307
In isopropanol, 288.15 K
  solubility (mole fraction): 0.0363
In isopropanol, 293.15 K
  solubility (mole fraction): 0.0444
In isopropanol, 298.15 K
  solubility (mole fraction): 0.0547
In isopropanol, 303.15 K
  solubility (mole fraction): 0.0669
In isopropanol, 308.15 K
  solubility (mole fraction): 0.078
In isopropanol, 313.15 K
  solubility (mole fraction): 0.0907
In isopropanol, 318.15 K
  solubility (mole fraction): 0.109
In isopropanol, 323.15 K
  solubility (mole fraction): 0.127
In methyl acetate, 278.15 K
  solubility (mole fraction): 0.0464
In methyl acetate, 283.15 K
  solubility (mole fraction): 0.0519
